Values quoted from earlier work as cited in patent US20070148240A1, “Oral formulation containing itraconazole and methods for manufacturing and using the same” (priority 2005, published 2007).

Columns and labels:
[1] = tested on: plasma proteins
[2] = not given; remark: listed apart in the source
[3] = tested on: fungi

Molecule	solubility in acids (in acids such as hydrochloric acid, acetic acid, phosphoric acid and methylsulfonic acid)	solubility in ethanol (in ethanol)	solubility in methylene chloride (in methylene chloride)	solubility in water (in water)	binding rate with plasma proteins [1] [%]	time to reach peak concentration in plasma ([2]; after being taken by patients) [h]	concentration in blood relative to that in plasma ([2]; human, in vivo)	itraconazole in original form excreted in feces ([2]; human, in vivo)	itraconazole in original form secreted in urine ([2]; human, in vivo) [%]	plasma half life ([2]; human, in vivo) [h]	itraconazole metabolites secreted in urine ([2]; within a week after uptake of the drug)	antifungal activity in vitro [3]
CCC(C)n1ncn(-c2ccc(N3CCN(c4ccc(OC[C@H]5CO[C@](Cn6cncn6)(c6ccc(Cl)cc6Cl)O5)cc4)CC3)cc2)c1=O (mixture of isomers) [itraconazole, (±)-cis-4-[4-[4-[4-[[2-(2,4-dichlorophenyl)-2-(1H-1,2,4-triazol-1-ylmethyl)-1,3-dioxolan-4-yl]methoxy]phenyl]-1-piperazinyl]phenyl]-2,4-dihydro-2-(1-methylpropyl)-3H-1,2,4-triazol-3-one]	easily soluble	low	easily soluble	less than 1 μg/ml	99.8	3 to 4	about 60%	3-18%	≤ 0.03	24 to 36	About 35%	
hydroxy-itraconazole												has been demonstrated in vitro to have antifungal activity
